Like-named read-outs stand apart in the source and are kept apart here.
How the values were obtained:
[1] = system: bFGF-induced cell proliferation of HUVECs; assay: Inhibition of bFGF-induced DNA synthesis ([3H]thymidine incorporation) in HUVECs; format: cell-based; conditions: Homo sapiens, HUVEC
Procedure: (§1) Human umbilical vein endothelial cells (HUVECs) were incubated in the absence of Compound 1 (basal and control) or presence of Compound 1 (with a concentration of […], 0.03 TM, 0.1 TM, 0.3 TM, or 1 TM). Vascular endothelial growth factor (VEGF) or basic fibroblast growth factor (bFGF) was added (except for basal) to induce DNA synthesis, which was detected based on [^3H]thymidine incorporation.

[2] = system: VEGF-induced angiogenic effect; assay: Matrigel plug angiogenesis in nude mice, VEGF; format: in vivo
Procedure: (§2) Nude mice were subcutaneously injected with a Matrigel plug containing 150 ng/mL VEGF or bFGF. Vehicle or Compound 1 was administrated to the mice orally (1 mg/kg/day, 3 mg/kg/day, 10 mg/kg/day, 30 mg/kg/day, or 100 mg/kg/day) for seven days. The angiogenic response was monitored visually through the transparent skin. […] The plugs were removed, fixed in 4% formaldehyde, embedded in paraffin, sectioned at 5-Tm thick for histological analysis, and blood vessel growth quantified by hematoxylin-eosin staining. All photos were taken at 40× magnification.
(§3) In a quantitative analysis of angiogenic effect, nude mice were treated as described above, and the plugs were removed and dissolved. Hemoglobin concentrations were measured using a hemoglobin detection kit (Sigma Chem. Co.) as indices of angiogenesis. Means±S.E. (n=3) were presented (see FIG. 1). Symbol “***” represents P<0.001 that are compared with the control.

[3] = system: bFGF-induced angiogenic effect; assay: Matrigel plug angiogenesis in nude mice, bFGF; format: in vivo
Procedure: as §2, §3

[4] = system: bFGF-induced tube formation of HUVECs; assay: Inhibition of bFGF-induced tube formation of HUVECs on Matrigel; format: cell-based, Human; conditions: 10 TM compound, bFGF 10 ng/mL, Matrigel 10 mg/mL
Procedure: (§4) HUVECs were cultured onto a chamber slide, which was pre-coated with Matrigel (10 mg/mL). Cells were treated without Compound 1 (control) or with Compound 1 (10 TM). VEGF (10 ng/mL) or bFGF (10 ng/mL) was added to induce tube formation. All photos were taken at 100× magnification.

HUVECs = assay: HUVEC growth inhibition assay (crystal violet); format: cell-based; conditions: Homo sapiens; for activity at 30 µM: 72 hours; for inhibition at 30 µM: read-out: Inhibition of HUVECs growth compared with the control
Procedure: These compounds were tested in a growth inhibition assay using HUVECs as follows. 5×10^3 Human umbilical vein endothelial cells (HUVECs) were seeded in two 96-well plates (Clonetic # CC3162). Each well contains 100 μl of endothelial cell basal medium-2. After 24 hr, 100 μl endothelial cell growth medium-2 containing a test compound was added to each well of the two plates. The cells in the first plate were immediately stained with 0.5% crystal violet in 20% methanol for 10 minutes, rinsed with water, and air-dried. The cells in the second plate were incubated for 72 hours at 37° C. and then stained in the same manner. Each well in the first and second plates was eluted with 1:1 ethanol and 0.1 M sodium citrate, and absorbance of the resulting solution was measured at 540 nm with an ELISA reader.
Basal and control experiments were also conducted according to the above procedure, except that 100 μl endothelial basal medium-2 and 100 μl endothelial growth medium-2 were added to the second plates, respectively, instead of endothelial cell growth medium-2 containing a test compound.
HUVECs growth in each well was compared with that of the basal experiment according to the following equation: % basal=(Asecond plate−Afirst plate)/(Asecond plate of basal−Afirst plate of basal)×100%
where Asecond plate is the absorbance of the solution in the second plate; Afirst plate is the absorbance of the solution in the first plate; Asecond plate of basal is the absorbance of the solution in the second plate of the basal; and Afirst plate of basal is the absorbance of the solution in the first plate of the basal.

[5] = system: VEGF-induced cell proliferation of HUVECs; assay: Inhibition of VEGF-induced DNA synthesis ([3H]thymidine incorporation) in HUVECs; format: cell-based; conditions: Homo sapiens, HUVEC
Procedure: as §1

A549 lung tumor cells = assay: Anti-tumor activity, survival of nude mice with A549 lung tumor cells in the pleural space; format: in vivo; conditions: oral 10 mg/kg/day, 10^6 A549 cells in pleural space, FIG. 2
Procedure: 10^6 A549 lung tumor cells were introduced into the pleural space of nude mice. Compound 1 was administrated to the mice orally (10 mg/kg/day). The survival rates of Compound 1-treated mice and control mice were compared (FIG. 2). The life span (i.e., the medium survival time) of Compound 1-treated mice was about 1.8 times that of control mice, as analyzed by a % T/C value [(median survival time of treatment/median survival time of control)×100].

[6] = system: VEGF-induced tube formation of HUVECs; assay: Inhibition of VEGF-induced tube formation of HUVECs on Matrigel; format: cell-based, Human; conditions: 10 TM compound, VEGF 10 ng/mL, Matrigel 10 mg/mL
Procedure: as §4

[7] = read-out: HUVEC growth, % of Basal
[8] = read-out: HUVEC growth, % of Control

SMILES | activity at 30 µM (HUVECs; [7]) [%] | activity at 30 µM (HUVECs; [8]) [%] | inhibition at 30 µM (HUVECs) [%] | also measured
OCc1ccc(-c2nn(Cc3ccccc3)c3ccccc23)o1 [Compound 1, 1-benzyl-3-(5′-hydroxymethyl-2′-furyl)indazole] | 92.2 ± 1.8 | 40.6 ± 0.8 | 60 to 76 | IC50 [1]: 140 nM; VEGF-induced angiogenic effect, blood vessel growth in Matrigel plug (histology) ([2]; oral 1-100 mg/kg/day for seven days, plug with 150 ng/mL VEGF): effectively inhibited; VEGF-induced angiogenic effect, hemoglobin concentration of plug ([2]; oral, seven days, n=3, FIG. 1): effectively inhibited; bFGF-induced angiogenic effect, blood vessel growth in Matrigel plug (histology) ([3]; oral 1-100 mg/kg/day for seven days, plug with 150 ng/mL bFGF): effectively inhibited; bFGF-induced angiogenic effect, hemoglobin concentration of plug ([3]; oral, seven days, n=3, FIG. 1): effectively inhibited; Inhibition of bFGF-induced formation of networks of elongated endothelial cells [4]: inhibited; IC50 [5]: 90 nM; Life span (medium survival time) relative to control mice (A549 lung tumor cells): about 1.8 times that of control mice; Inhibition of VEGF-induced formation of networks of elongated endothelial cells [6]: inhibited
COC(=O)c1ccc(-c2n[nH]c3ccccc23)o1 [Compound 2] | 193 ± 11.1 | 85 ± 4.9 | 15 | 
OCc1ccc(-c2n[nH]c3ccccc23)o1 [Compound 3] | 178 ± 14.7 | 78.4 ± 6.5 | 22 to 40 | 
COC(=O)c1ccc(-c2nn(Cc3ccccc3)c3cc(F)ccc23)o1 [Compound 4] | 195 ± 6.5 | 85.9 ± 2.8 | 15 | 
OCc1ccc(-c2nn(Cc3ccccc3)c3cc(F)ccc23)o1 [Compound 6] | 83.9 ± 4 | 37 ± 1.8 | 60 to 76 | 
Cc1ccc2c(-c3ccc(CO)o3)nn(Cc3ccccc3)c2c1 [Compound 7] | 53.9 ± 7.5 | 23.7 ± 3.3 | 60 to 76 | 
Cc1ccc2c(-c3ccc(C(=O)O)o3)nn(Cc3ccccc3)c2c1 [Compound 8] | 163 ± 22.1 | 71.4 ± 9.7 | 22 to 40 | 
O=C(O)c1cccc(-c2nn(Cc3ccccc3)c3ccccc23)c1 [Compound 9] | 172 ± 14.4 | 75.8 ± 6.3 | 22 to 40 | 

Source: patent publication US20070142449A1, “Angiogenesis inhibitors” (priority 2002, published 2007)
